Consider one compound from patent US6599908B1, “Fused polycyclic 2-aminopyrimidine derivatives” (Celltech R & D Limited, priority 1996, dated 2003).

In general, melting point refers to the temperature of the solid-liquid transition. Regarding `COc1cc(Nc2ncc3c(n2)-c2ccccc2CCC3)cc(OC)c1OC` [Example 6, N-(3,4,5-Trimethoxyphenyl)-6,7-dihydro-5H-benzo[6,7]cyclohepta[d]pyrimidine-2-amine], the melting point lay in the range of 201 to 202 °C.
